Measurements reported in patent US20190136302A1, “METHODS FOR DETECTING OLIGONUCLEOTIDES IN A SAMPLE” (THE REGENTS OF THE UNIVERSITY OF CALIFORNIA, priority 2016, published 2019).

Columns and labels:
[1] = tested on: Capture PRLR SMO oligo; assay: ELOSA competition with PRLR SMO capture oligonucleotide and HRP-PRLR SMO; assay type: binding, mouse; settings: for hybridization to Capture PRLR SMO / displacement of HRP-PRLR SMO (absorbance): PRLR SMO capture oligonucleotide at increasing concentrations, mouse sequences
Procedure: (§1) The capture reagent was synthesized using a sequence antisense to the test oligonucleotide, along with an amino-terminus and a 12 carbon aliphatic spacer. The amino-terminus allows binding to the wells of a 96-well, polystyrene DNA-binding plate and the spacer minimizes steric hindrance during hybridization of the test oligonucleotides. The capture reagent (2 picomoles/well) was incubated in 100 μl 0.05M phosphate (pH 8.5) —1 mM EDTA at 4° C. for 24 h or longer.
(§2) After washing (3 times with 0.05M TrisHCl (pH 8)—1 mM EDTA), the plate was blocked to reduce non-specific binding (200 μl 3% bovine serum albumin—0.05M TrisHCl (pH 8)—1 mM EDTA at 37° C. for 4 h).
(§3) After washing 3 times, the test oligo and a constant concentration of horseradish peroxidase-labeled oligonucleotide (i.e., the competition oligonucleotide with a sequence the same as test oligo) was incubated with the capture reagent. The amount of competition oligonucleotide hybridized to the capture reagent is inversely proportional to the total amount of test oligonucleotide present. Incubations were in a total final volume of 100 μl in 0.05M TrisHCl (pH 7.5)—1 mM EDTA, with Test oligo (variable doses up to 1 pmole), constant HRP-Oligo (0.5-1 pmole), and a total serum volume of 10 to 25 μl. Incubations were at 37° C. for 15 h.
(§4) After washing 3 times with TBST, the competition oligonucleotide bound to the capture reagent was measured using 100 μl 0.1 mg/ml TMB—1% hydrogen peroxide. After color development, the reaction was stopped with 50 μl 1N H2SO4, and the amount of colored product was measured spectrophotometrically at A450.
For clarity, the PRLR SMO vivo-morpholino is referred to as Antimaia to distinguish it from the oligonucleotides being used for competition or capture, which are called HRP-PRLR SMO and capture PRLR SMO, respectively. […] The methods used for these experiments are described in Example 1.

[2] = tested on: Capture Control SMO oligo; assay: ELOSA competition with Control SMO capture oligonucleotide and HRP-Control SMO; assay type: binding; settings: test oligo 5 pmoles; HRP-Control SMO 1 pmole; Capture Control SMO 5 pmoles
Procedure: as §1, with “The capture reagent (2 picomoles/well) was incubated in 100 μl 0.05M phosphate (pH 8.5) —1 mM EDTA at 4° C. for 24 h or longer.” left out
as §2
as §3, with “Incubations were in a total final volume of 100 μl in 0.05M TrisHCl (pH 7.5)—1 mM EDTA, with Test oligo (variable doses up to 1 pmole), constant HRP-Oligo (0.5-1 pmole), and a total serum volume of 10 to 25 μl.” left out
as §4, with “A450. […]” for “A450.”

[3] = tested on: orthotopic models of breast cancer; settings: cited from earlier work
[4] = tested on: prolactin receptor (PRLR); settings: treatment with PRLR SMO; cited from earlier work

Substance | hybridization to Capture PRLR SMO / displacement of HRP-PRLR SMO (absorbance) [1] | competition with HRP-Control SMO for binding to the Capture Control SMO [2] | sensitivity of the assay ([1]; Capture PRLR SMO 2 pmoles, HRP-PRLR-SMO 0.5 pmole, presence of serum) [pmol] | competition easily detected above ([1]; capture reagent 2 pmoles, HRP-PRLR SMO in the 0.5 pmole range, presence of serum) | tolerability ([3]; in vivo) | reduction in metastatic spread ([3]; two orthotopic models of breast cancer) [%] | effect on PRLR splice forms [4]
5′-AAAAAAGACGAGATTCGATCGGAGTAAAA-3′ (SEQ ID NO: 1) (all phosphorodiamidate morpholino (PMO); vivo-morpholino: octaguanidine derivatization attached, position not given here) [Control SMO, reference compound] | did not hybridize | competed |  |  |  |  | 
5′-AAAAAGCCCTTCTATTGAAACACAGATACAAAA-3′ (SEQ ID NO: 4) (all phosphorodiamidate morpholino (PMO); vivo-morpholino: octaguanidine derivatization attached, position not given here; listed as Mus sp.) [Antimaia, vivo-morpholino splice-modulating oligomer for the prolactin receptor, phosphorodiamidate morpholino backbone and octaguanidine derivatizations] | displaced HRP-PRLR SMO | essentially no effect | 0.25 | above 0.2 pmoles | well-tolerated | 80 | loss of the growth-promoting PRLR without loss of the growth-inhibiting splice form of the PRLR
